Among the data in article PMC10339607, “Screening and identification of emodin as an EBV DNase inhibitor to prevent its biological functions” (Virology Journal, 2023) are IC50 values, retold here.

The assay deals with T1, EBV DNase (BGLF5) (Epstein-barr virus strain ag876, UniProt Q1HVE7).
T1 construct: full-length wild-type, 470 amino acids; pET-15b His-tag; E. coli BL21(DE3) pLysS
Briefly: PicoGreen fluorescence nuclease activity assay. It counts as biochemical.

SMILES strings stand for the structures.

T1 sequence (Q1HVE7 whole entry): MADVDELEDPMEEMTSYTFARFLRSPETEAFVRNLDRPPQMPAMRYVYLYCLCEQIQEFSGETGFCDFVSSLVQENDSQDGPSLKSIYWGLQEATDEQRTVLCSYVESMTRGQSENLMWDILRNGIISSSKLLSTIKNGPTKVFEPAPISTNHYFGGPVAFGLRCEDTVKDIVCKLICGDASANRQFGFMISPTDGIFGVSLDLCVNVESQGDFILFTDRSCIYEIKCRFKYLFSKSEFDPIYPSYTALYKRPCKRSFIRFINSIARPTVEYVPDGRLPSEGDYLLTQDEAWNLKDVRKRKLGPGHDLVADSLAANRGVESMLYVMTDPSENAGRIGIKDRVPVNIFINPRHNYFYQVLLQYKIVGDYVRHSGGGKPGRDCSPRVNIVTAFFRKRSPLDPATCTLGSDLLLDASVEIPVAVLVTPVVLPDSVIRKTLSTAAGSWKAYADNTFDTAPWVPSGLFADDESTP

Usually IC50 stands for the concentration needed to halve the response being measured. Read a low IC50 as greater potency. In the case of `O=C(O[C@@H]1Cc2c(O)cc(O)cc2O[C@@H]1c1cc(O)c(O)c(O)c1)c1cc(O)c(O)c(O)c1` [epigallocatechin gallate], the IC50 came out at 89 µM.
The result for `Cc1cc(O)c2c(c1)C(=O)c1cc(O)cc(O)c1C2=O` [emodin] reads 31 µM.
`O=c1c(O)c(-c2ccc(O)cc2)oc2cc(O)cc(O)c12` [Kaempferol] yielded an IC50 of 69 µM.
The result for `C[S@@+]([O-])CCCCN=C=S` [sulforaphane] reads greater than 100 µM; that for `C=CCSSCC=C` [diallyl disulfide], greater than 100 µM.
